Consider one compound from patent publication US20090285773A1, “Hepatitis C Virus Inhibitors” (Bristol-Myers Squibb Company, priority 2008, published 2009).

For this test, the target named is HCV NS3/4A protease complex, BMS strain (genotype 1a) (UniProt P27958, species not given/STRAIN_BMS). Kind of test: FRET peptide assay, HCV NS3/4A protease complex, BMS strain. Type of test: biochemical. Conditions: read-out: IC50 against the NS3/4A BMS strain in the enzyme assay. From the text:
HCV NS3 protease complexes, derived from the BMS strain, H77 strain or J4L6S strain, were generated, as described below. These purified recombinant proteins were generated for use in a homogeneous assay (see below) to provide an indication of how effective compounds of the present disclosure would be in inhibiting HCV NS3 proteolytic activity.
Serum from an HCV-infected patient was obtained from Dr. T. Wright, San Francisco Hospital. […]
In order to monitor HCV NS3/4A protease activity, an NS3/4A peptide substrate was used. […] The peptide also contains a fluorescence donor, EDANS, near one end of the peptide and an acceptor, DABCYL, near the other end. The fluorescence of the peptide is quenched by […] resonance energy transfer (RET) between the donor and the acceptor, but as the NS3 protease cleaves the peptide the products are released from RET quenching and the fluorescence of the donor becomes apparent.
The peptide substrate was incubated with one of the three recombinant NS3/4A protease complexes, in the absence or presence of a compound of the present disclosure. The inhibitory effects of a compound were determined by monitoring the formation of fluorescent reaction product in real time using a Cytofluor Series 4000. […]

pIC50: −log10 of the molar value.

HCV NS3/4A protease complex, BMS strain (genotype 1a), sequence (P27958 1027-1657, stated change not applied, one chain of several): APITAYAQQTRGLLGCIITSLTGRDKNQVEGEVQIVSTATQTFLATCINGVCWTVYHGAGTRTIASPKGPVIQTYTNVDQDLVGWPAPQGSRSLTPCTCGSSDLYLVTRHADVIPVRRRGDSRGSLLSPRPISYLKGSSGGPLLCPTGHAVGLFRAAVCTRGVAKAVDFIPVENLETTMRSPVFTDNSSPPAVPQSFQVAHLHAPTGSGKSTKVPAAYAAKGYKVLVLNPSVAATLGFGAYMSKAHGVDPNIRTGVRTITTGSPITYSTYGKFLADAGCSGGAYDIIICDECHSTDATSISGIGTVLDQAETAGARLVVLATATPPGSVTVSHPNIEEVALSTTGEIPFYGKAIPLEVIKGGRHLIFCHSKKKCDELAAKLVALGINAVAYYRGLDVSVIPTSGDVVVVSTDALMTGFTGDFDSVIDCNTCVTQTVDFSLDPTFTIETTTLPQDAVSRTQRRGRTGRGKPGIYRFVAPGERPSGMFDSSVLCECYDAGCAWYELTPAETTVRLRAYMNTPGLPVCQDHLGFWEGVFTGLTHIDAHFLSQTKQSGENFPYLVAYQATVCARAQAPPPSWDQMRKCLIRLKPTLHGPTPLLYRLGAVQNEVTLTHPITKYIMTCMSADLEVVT

On to `COc1ccc2c(O[C@@H]3C[C@H]4C(=O)N[C@]5(C(=O)NS(=O)(=O)C6CC6)C[C@H]5/C=C\CCCCC[C@H](Nc5ccc(OC)nc5)C(=O)N4C3)nccc2c1` (single isomer, unassigned) [Compound 1], for which the pIC50 is 8.06.
